Experimental data published in patent US8241659B2, “Nutrition with lipids and non-digestible saccharides” (N. V. Nutricia, priority 2005, dated 2012).

Assays:
Bifidobacteria = test: Growth in the presence of butyrate (data not shown); format: cell-based; conditions: 10 mM butyrate
lactic acid bacteria = test: as above; format: cell-based; conditions: 10 mM butyrate

## CCCC(=O)O [butyrate]
Bifidobacteria
  growth inhibition: not inhibited
Lactic acid bacteria
  growth inhibition: not inhibited
